{
  "source": "patent US20250361230A1",
  "about": "“LATS Inhibitors and Uses Thereof” (The USA, as Represented by the Secretary, Dept. of Heath …, priority 2022, published 2025)",
  "data": [
    {"target": "T1, LATS1 Kinase-NanoLuc fusion in HEK-293 cells (Homo sapiens, UniProt O95835)", "T1 construct": "host or cells: HEK-293", "T1 sequence (O95835 1-1130)": "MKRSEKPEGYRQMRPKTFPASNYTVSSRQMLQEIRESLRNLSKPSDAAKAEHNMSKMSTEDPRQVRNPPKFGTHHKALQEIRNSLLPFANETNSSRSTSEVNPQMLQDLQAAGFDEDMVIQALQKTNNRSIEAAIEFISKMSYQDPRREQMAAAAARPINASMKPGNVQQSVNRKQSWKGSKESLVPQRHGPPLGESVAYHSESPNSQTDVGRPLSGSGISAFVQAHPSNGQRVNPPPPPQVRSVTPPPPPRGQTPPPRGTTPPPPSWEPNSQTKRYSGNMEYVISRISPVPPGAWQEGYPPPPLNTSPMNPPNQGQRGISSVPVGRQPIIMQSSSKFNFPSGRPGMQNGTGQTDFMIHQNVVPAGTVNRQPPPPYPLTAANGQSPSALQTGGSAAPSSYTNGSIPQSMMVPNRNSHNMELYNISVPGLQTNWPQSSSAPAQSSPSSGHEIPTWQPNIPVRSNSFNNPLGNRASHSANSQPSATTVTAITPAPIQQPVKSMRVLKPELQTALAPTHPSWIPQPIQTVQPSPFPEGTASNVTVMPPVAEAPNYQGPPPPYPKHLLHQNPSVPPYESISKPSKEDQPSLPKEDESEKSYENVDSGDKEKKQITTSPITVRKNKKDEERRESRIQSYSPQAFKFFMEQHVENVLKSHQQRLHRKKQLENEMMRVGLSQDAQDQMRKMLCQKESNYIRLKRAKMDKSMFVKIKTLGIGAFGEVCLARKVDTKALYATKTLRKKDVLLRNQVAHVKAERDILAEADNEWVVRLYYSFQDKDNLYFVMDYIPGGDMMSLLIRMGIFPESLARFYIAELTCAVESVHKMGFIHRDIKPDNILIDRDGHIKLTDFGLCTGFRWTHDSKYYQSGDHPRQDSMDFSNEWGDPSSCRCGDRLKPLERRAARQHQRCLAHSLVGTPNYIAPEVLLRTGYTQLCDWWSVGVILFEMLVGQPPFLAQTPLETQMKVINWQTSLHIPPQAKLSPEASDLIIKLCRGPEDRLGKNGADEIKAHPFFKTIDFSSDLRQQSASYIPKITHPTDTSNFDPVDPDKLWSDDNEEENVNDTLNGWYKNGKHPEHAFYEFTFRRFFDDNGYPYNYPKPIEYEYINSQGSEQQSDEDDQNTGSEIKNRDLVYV", "test": "NanoBRET target engagement assay in transfected HEK-293 cells, LATS1", "type": "cell-based", "details": "Table 28, NanoBRET, HEK-293 cells; read-out: LATS1 (Cellular) IC50", "from_the_text": "(§1) The NanoBRET™ assay measures kinase engagement in real time in the context of the intact cell. The assay uses a Kinase-NanoLuc® fusion vector expressing a kinase protein to which a luciferase tag has been added, a cell-permeant fluorescent NanoBRET™ tracer, a NanoLuc® substrate, and an extracellular NanoLuc® inhibitor. Upon expression of the luciferase-tagged kinase, cells will produce a strong BRET signal only in the presence of the NanoBRET™ tracer. The extracellular NanoLuc® inhibitor ensures that the BRET signal observed emanates only from live cells. Because the BRET signal has tight distance constraints, addition of the test compound will decrease the BRET signal if the compound competes with the NanoBRET™ tracer for binding to the kinase domain. Under the appropriate tracer conditions established by the manufacturer, quantitative intracellular affinity and relative potency can then be determined using Mass Action model equations.\n(§2) HEK-293 cells were purchased from ATCC. FuGENEHD Transfection Reagent, Kinase-NanoLuc® fusion plasmids, Transfection Carrier DNA, NanoBRET™ Tracers and dilution buffer, NanoBRET™ Nano-Glo Substrate, Extracellular NanoLuc® Inhibitor were obtained from Promega.\n(§3) Assays were conducted following Promega assay protocol with some modifications as described further below. HEK-293 Cells were transiently transfected with Kinase-NanoLuc® Fusion Vector DNA by FuGENE HD Transfection Reagent. Test compounds were delivered into 384 well assay plate by Echo 550 (Labcyte Inc, Sunnyvale, CA). Transfected cells were harvested and mixed with NanoBRET™ Tracer Reagent and dispensed into 384 well plates and incubated at 37° C. in 5% CO2 cell culture incubator for 1 hour. The NanoBRET™ Nano-Glo Substrate plus Extracellular NanoLuc® Inhibitor Solution were added into the wells of the assay plate and incubated for 2-3 minutes at room temperature. The donor emission wavelength (460 nm) and acceptor emission wavelength (600 nm) were measured in the EnVision plate reader. The BRET Ratios were calculated. BRET Ratio=[(Acceptor sample÷Donor sample)−(Acceptor no-tracer control÷Donor no-tracer control)]. The IC50 values of compounds were calculated with Prism GraphPad program.\n(§4) • 1. Transient Transfection of HEK-293 Cells NanoLuc® Fusion Vector DNA • 1). Cultivate HEK-293 cells (70-80% confluence) appropriately prior to assay. Trypsinize and collect HEK-293 cells. • 2). Prepare lipid: DNA complexes as follows: • a. Prepare a […] solution of DNA in Opti-MEM™ without serum that consists of the following ratios of carrier DNA and DNA encoding NanoLuc® fusion. 9.0 µg/mL of Transfection Carrier DNA, […] of NanoLuc® fusion vector DNA and 1 mL of Opti-MEM™ without phenol red. Mix thoroughly. • b. Add 30 μl of FuGENE HD Transfection Reagent into each milliliter of DNA mixture to form lipid: DNA complex. • c. Mix by inversion 10 times. • d. Incubate at ambient temperature for 20 minutes to allow complexes to form. • 3). In a sterile, conical tube, mix 1 part of lipid: DNA complex with 20 parts of HEK-293 cells in suspension. Mix gently by inversion 5 times. • 4). Dispense cells+lipid: DNA complex into a sterile tissue culture dish and incubate for 22-24 hours. • 2. Addition of Test Compounds (dry plate shooting): Each test compound is delivered from the compound source plate to the wells of 384-well white NBS plate by Echo 550. • 3. Preparation of Cells with NanoBRET™ Tracer Reagent • 1). Remove medium from dish with transfected HEK-293 cells via aspiration, trypsinize and allow cells to dissociate from the dish. • 2). Neutralize trypsin using medium containing serum and centrifuge at 200× g for 5 minutes to pellet the cells. Adjust the cell density to 2×10^5 cells/mL in Opti-MEM™ without phenol red. • 3). Prepare Complete 20× NanoBRET™ Tracer Reagent with Tracer Dilution Buffer. • 4). Dispense one part of Complete 20× NanoBRET™ Tracer Reagent to 20 parts of cells in the tube. Mix gently by inversion 10 times. • 5). […]", "units": {"IC50": "nM"}, "values": [
      {"smiles": "COC(=O)c1c[nH]c2nccc(-c3cc(C)c([C@@]4(O)[C@H](C)CN(C(=O)CN)C[C@@H]4C)c(F)c3)c12", "note": "[Compound 310, methyl 4-(3-fluoro-4-((3S,4s,5R)-1-glycyl-4-hydroxy-3,5-dimethylpiperidin-4-yl)-5-methylphenyl)-1H-pyrrolo[2,3-b]pyridine-3-carboxylate]", "IC50": 4590},
      {"smiles": "C[C@@H]1CN(C(=O)CN)C[C@H](C)[C@@]1(O)c1c(F)cc(-c2ccnc3[nH]cc(F)c23)cc1F", "note": "[Compound 58]", "IC50": 147},
      {"smiles": "CC1CC(c2ccc(-c3ccnc4[nH]ccc34)cc2)CC(C)N1", "note": "(centres unmarked) [Compound 187, 4-(4-(2,6-dimethylpiperidin-4-yl)phenyl)-1H-pyrrolo[2,3-b]pyridine]", "IC50": "> 50000"},
      {"smiles": "C[C@@H]1CNC[C@H](C)[C@@]1(O)c1ccc(-c2ccnc3[nH]cc(F)c23)cc1Cl", "note": "[Compound 1, (3S,4S,5R)-4-(2-chloro-4-(3-fluoro-1H-pyrrolo[2,3-b]pyridin-4-yl)phenyl)-3,5-dimethylpiperidin-4-ol]", "IC50": 203},
      {"smiles": "Cc1cc(-c2ccnc3[nH]cc(F)c23)cc(F)c1[C@@]1(O)[C@H](C)CN(C(=O)CN)C[C@@H]1C", "note": "[Compound 61, 2-amino-1-((3R,4s,5S)-4-(2-fluoro-4-(3-fluoro-1H-pyrrolo[2,3-b]pyridin-4-yl)-6-methylphenyl)-4-hydroxy-3,5-dimethylpiperidin-1-yl)ethan-1-one]", "IC50": 4},
      {"smiles": "Cc1cc(-c2ccnc3[nH]ccc23)ccc1CN", "note": "[Compound 266, (2-methyl-4-(1H-pyrrolo[2,3-b]pyridin-4-yl)phenyl) methanamine]", "IC50": 6710},
      {"smiles": "Cc1cc(-c2ccnc3[nH]cc(Cl)c23)ccc1CN", "note": "[Compound 254, (4-(3-chloro-1H-pyrrolo[2,3-b]pyridin-4-yl)-2-methylphenyl) methanamine]", "IC50": 714},
      {"smiles": "NCc1ccc(-c2ccnc3[nH]cc(-c4cccnc4)c23)cc1", "note": "[Compound 245, (4-(3-(pyridin-3-yl)-1H-pyrrolo[2,3-b]pyridin-4-yl)phenyl) methanamine]", "IC50": 11900},
      {"smiles": "NCc1ccc(-c2ccnc3[nH]cc(F)c23)cc1", "note": "[Compound 275, (4-(3-fluoro-1H-pyrrolo[2,3-b]pyridin-4-yl)phenyl) methanamine]", "IC50": 10100},
      {"smiles": "Cc1cc(-c2ccnc3[nH]cc(F)c23)cc(F)c1[C@@]1(O)[C@H](C)CN(C)C[C@@H]1C", "note": "[Compound 304, (3S,4s,5R)-4-(2-fluoro-4-(3-fluoro-1H-pyrrolo[2,3-b]pyridin-4-yl)-6-methylphenyl)-1,3,5-trimethylpiperidin-4-ol]", "IC50": 41.7},
      {"smiles": "c1cc(-c2ccc(C3CC4CCC(C3)N4)cc2)c2cc[nH]c2n1", "note": "(centres unmarked) [Compound 184, 4-(4-(8-azabicyclo[3.2.1]octan-3-yl)phenyl)-1H-pyrrolo[2,3-b]pyridine]", "IC50": 57400},
      {"smiles": "Cc1cc(-c2ccnc3[nH]cc(F)c23)cc(F)c1[C@@]1(O)[C@H](C)CN(C(C)C)C[C@@H]1C", "note": "[Compound 305, (3S,4s,5R)-4-(2-fluoro-4-(3-fluoro-1H-pyrrolo[2,3-b]pyridin-4-yl)-6-methylphenyl)-1-isopropyl-3,5-dimethylpiperidin-4-ol]", "IC50": 62.2},
      {"smiles": "Cc1cc(-c2ccnc3[nH]cc(F)c23)ccc1[C@@]1(O)[C@H](C)CN(C2COC2)C[C@@H]1C", "note": "[Compound 24, (3S,4s,5R)-4-(4-(3-fluoro-1H-pyrrolo[2,3-b]pyridin-4-yl)-2-methylphenyl)-3,5-dimethyl-1-(oxetan-3-yl)piperidin-4-ol]", "IC50": 127},
      {"smiles": "C[C@@H]1CN(C2CCS(=O)(=O)CC2)C[C@H](C)C1(O)c1c(F)cc(-c2ccnc3[nH]cc(F)c23)cc1F", "note": "(stereo partly drawn) [Compound 31, 4-((3S,5R)-4-(2,6-difluoro-4-(3-fluoro-1H-pyrrolo[2,3-b]pyridin-4-yl)phenyl)-4-hydroxy-3,5-dimethylpiperidin-1-yl)tetrahydro-2H-thiopyran 1,1-dioxide]", "IC50": 1190}
    ]},
    {"target": "T1, LATS1 Kinase-NanoLuc fusion in HEK-293 cells", "test": "NanoBRET target engagement assay in transfected HEK-293 cells, LATS1", "type": "cell-based", "details": "Table 32, NanoBRET, HEK-293 cells; read-out: LATS1 (Cellular) IC50", "from_the_text": "as §1, §2, §3, §4", "units": {"IC50": "nM"}, "values": [
      {"smiles": "NCC(=O)NCC(O)(c1ccc(Cl)cc1)c1ccc(-c2ccnc3[nH]cc(Cl)c23)cc1", "note": "(centres unmarked) [Compound 1021, 2-amino-N-(2-(4-(3-chloro-1H-pyrrolo[2,3-b]pyridin-4-yl)phenyl)-2-(4-chlorophenyl)-2-hydroxyethyl) acetamide]", "IC50": 159},
      {"smiles": "COC(=O)c1c[nH]c2nccc(-c3ccc(C(O)(CN)c4ccc(Cl)cc4)cc3)c12", "note": "(centres unmarked) [Compound 1004, Methyl 4-(4-(2-amino-1-(4-chlorophenyl)-1-hydroxyethyl)phenyl)-1H-pyrrolo[2,3-b]pyridine-3-carboxylate]", "IC50": 2000},
      {"smiles": "NCC(O)(c1ccc(Cl)cc1)c1ccc(-c2ccnc3[nH]cc(-c4cccnc4)c23)cc1", "note": "(centres unmarked) [Compound 1007, 2-amino-1-(4-chlorophenyl)-1-(4-(3-(pyridin-3-yl)-1H-pyrrolo[2,3-b]pyridin-4-yl)phenyl)ethan-1-ol]", "IC50": 309}
    ]},
    {"target": "T1, LATS1 Kinase-NanoLuc fusion in HEK-293 cells", "test": "NanoBRET target engagement assay in transfected HEK-293 cells, LATS1", "type": "cell-based", "details": "cellular", "from_the_text": "as §1, §2, §3, §4", "units": {"IC50": "nM"}, "values": [
      {"smiles": "Cc1cc(-c2ccnc3[nH]cc(C#N)c23)cc(F)c1[C@@]1(O)[C@H](C)CN(C(=O)[C@H](CO)N(C)C)C[C@@H]1C", "note": "[Compound 2023, 4-(4-((3S,4R,5R)-1-(dimethyl-L-seryl)-4-hydroxy-3,5-dimethylpiperidin-4-yl)-3-fluoro-5-methylphenyl)-1H-pyrrolo[2,3-b]pyridine-3-carbonitrile]", "IC50": "< 2.5"},
      {"smiles": "Cc1cc(-c2ccnc3[nH]cc(C#N)c23)cc(F)c1[C@@]1(O)[C@H](C)CN(C(=O)CN)C[C@@H]1C", "note": "[Compound 2004, 4-(3-fluoro-4-((3S,4s,5R)-1-glycyl-4-hydroxy-3,5-dimethylpiperidin-4-yl)-5-methylphenyl)-1H-pyrrolo[2,3-b]pyridine-3-carbonitrile]", "IC50": 2.5},
      {"smiles": "Cc1cc(-c2ccnc3[nH]cc(C#N)c23)ccc1[C@@]1(O)[C@H](C)CN(C(=O)CN)C[C@@H]1C", "note": "[Compound 2005, 4-(4-((3S,4s,5R)-1-glycyl-4-hydroxy-3,5-dimethylpiperidin-4-yl)-3-methylphenyl)-1H-pyrrolo[2,3-b]pyridine-3-carbonitrile]", "IC50": 46.6}
    ]}
  ]
}
